Results taken from the supplement of paper PMC11208160.

assay: recombinant barcode read abundance after kanamycin selection (control-corrected) (log10(CPM+1)); higher = more efficient recombination; sequences stand for … in AGTGCAGAGAAAATCGGCCAGTTTTCTCTGCCTGCAGTCCGCATGCCGT…ATTTATGCAGCGGACTGCCTTTCTCCCAAAGTGATAAACCGGACAGTATCATGGACCGGTTTTCCCGGTAATCCGTATTTGCAAGGTTGGTTTCACT; site = the 11-nt target
Description: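 Same pooled E. coli target screen (IS621 bridge recombinase, kanamycin selection, control-corrected CPM, mean of 2 biological replicates). Here the two core-binding nucleotides of the LTG and RTG of the bridge RNA target-binding loop are mutated. Target and donor CT cores are held constant, and the other 9 guide positions match the target. The target is read from the library oligo sequence. Molecule = full bridge RNA written as DNA: nt 1-80 from the library oligo, rest WT scaffold.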

| Sequence | recombinant barcode read abundance (log10) |
| --- | --- |
| AGGCGGTCTTGGGTTCTAACCTGTTGCTTAA [AGGCGGTCTAA_LTGcore_CT_RTGcore_TT] (site AGGCGGTCTAA) (LTG core: CT, RTG core: TT) | 0.0737 |
| AGGCGGTCTTGGGTTCTAACCTGTTGCTTGA [AGGCGGTCTAA_LTGcore_CT_RTGcore_TC] (site AGGCGGTCTAA) (LTG core: CT, RTG core: TC) | 0.107 |
| AGGCGGTCTTGGGTTCTAACCTGTTGCTTGC [AGGCGGTCTAA_LTGcore_CT_RTGcore_GC] (site AGGCGGTCTAA) (LTG core: CT, RTG core: GC) | 0.784 |
| AGGCGGTCTTGGGTTCTAACCTGTTGCTTGG [AGGCGGTCTAA_LTGcore_CT_RTGcore_CC] (site AGGCGGTCTAA) (LTG core: CT, RTG core: CC) | 0.244 |
| AGGCGGTGATGGGTTCTAACCTGTTGCTTAG [AGGCGGTCTAA_LTGcore_GA_RTGcore_CT] (site AGGCGGTCTAA) (LTG core: GA, RTG core: CT) | 0.09 |
| AGGCGGTGATGGGTTCTAACCTGTTGCTTTC [AGGCGGTCTAA_LTGcore_GA_RTGcore_GA] (site AGGCGGTCTAA) (LTG core: GA, RTG core: GA) | 0.101 |
| AGTCTTAAATGGGTTCTAACCTGTTGCCAAG [AGTCTTACTTG_LTGcore_AA_RTGcore_CT] (site AGTCTTACTTG) (LTG core: AA, RTG core: CT) | 0.182 |
| AGTCTTACTTGGGTTCTAACCTGTTGCCAAC [AGTCTTACTTG_LTGcore_CT_RTGcore_GT] (site AGTCTTACTTG) (LTG core: CT, RTG core: GT) | 0.0371 |
| AGTCTTACTTGGGTTCTAACCTGTTGCCACT [AGTCTTACTTG_LTGcore_CT_RTGcore_AG] (site AGTCTTACTTG) (LTG core: CT, RTG core: AG) | 0.0729 |
| AGTCTTACTTGGGTTCTAACCTGTTGCCAGT [AGTCTTACTTG_LTGcore_CT_RTGcore_AC] (site AGTCTTACTTG) (LTG core: CT, RTG core: AC) | 0.0396 |
| AGTCTTAGTTGGGTTCTAACCTGTTGCCAAC [AGTCTTACTTG_LTGcore_GT_RTGcore_GT] (site AGTCTTACTTG) (LTG core: GT, RTG core: GT) | 0 |
| AGTCTTATGTGGGTTCTAACCTGTTGCCAAG [AGTCTTACTTG_LTGcore_TG_RTGcore_CT] (site AGTCTTACTTG) (LTG core: TG, RTG core: CT) | 0.0537 |
| AGTCTTATGTGGGTTCTAACCTGTTGCCACA [AGTCTTACTTG_LTGcore_TG_RTGcore_TG] (site AGTCTTACTTG) (LTG core: TG, RTG core: TG) | 0.0473 |
| ATGCTTTAGTGGGTTCTAACCTGTTGCCTCT [ATGCTTTCTAG_LTGcore_AG_RTGcore_AG] (site ATGCTTTCTAG) (LTG core: AG, RTG core: AG) | 0.0908 |
| ATGCTTTATTGGGTTCTAACCTGTTGCCTAT [ATGCTTTCTAG_LTGcore_AT_RTGcore_AT] (site ATGCTTTCTAG) (LTG core: AT, RTG core: AT) | 0.153 |
| ATGCTTTCATGGGTTCTAACCTGTTGCCTAG [ATGCTTTCTAG_LTGcore_CA_RTGcore_CT] (site ATGCTTTCTAG) (LTG core: CA, RTG core: CT) | 0.0483 |
| ATGCTTTCTTGGGTTCTAACCTGTTGCCTCG [ATGCTTTCTAG_LTGcore_CT_RTGcore_CG] (site ATGCTTTCTAG) (LTG core: CT, RTG core: CG) | 0.21 |
| ATGCTTTCTTGGGTTCTAACCTGTTGCCTTA [ATGCTTTCTAG_LTGcore_CT_RTGcore_TA] (site ATGCTTTCTAG) (LTG core: CT, RTG core: TA) | 0.0193 |
| ATGCTTTCTTGGGTTCTAACCTGTTGCCTTT [ATGCTTTCTAG_LTGcore_CT_RTGcore_AA] (site ATGCTTTCTAG) (LTG core: CT, RTG core: AA) | 0.103 |
| ATGCTTTTCTGGGTTCTAACCTGTTGCCTAG [ATGCTTTCTAG_LTGcore_TC_RTGcore_CT] (site ATGCTTTCTAG) (LTG core: TC, RTG core: CT) | 0.439 |
| ATGCTTTTCTGGGTTCTAACCTGTTGCCTGA [ATGCTTTCTAG_LTGcore_TC_RTGcore_TC] (site ATGCTTTCTAG) (LTG core: TC, RTG core: TC) | 0.187 |
| ATGCTTTTTTGGGTTCTAACCTGTTGCCTAG [ATGCTTTCTAG_LTGcore_TT_RTGcore_CT] (site ATGCTTTCTAG) (LTG core: TT, RTG core: CT) | 0.239 |

| Sequence | recombinant barcode read abundance (log10) |
| --- | --- |
| ATGTCCCAATGGGTTCTAACCTGTTGCTCAG [ATGTCCCCTGA_LTGcore_AA_RTGcore_CT] (site ATGTCCCCTGA) (LTG core: AA, RTG core: CT) | 0.274 |
| ATGTCCCCTTGGGTTCTAACCTGTTGCTCAA [ATGTCCCCTGA_LTGcore_CT_RTGcore_TT] (site ATGTCCCCTGA) (LTG core: CT, RTG core: TT) | 0.0803 |
| ATGTCCCCTTGGGTTCTAACCTGTTGCTCAG [ATGTCCCCTGA_LTGcore_CT_RTGcore_CT] (site ATGTCCCCTGA) (LTG core: CT, RTG core: CT) | 1.46 |
| ATGTCCCCTTGGGTTCTAACCTGTTGCTCCC [ATGTCCCCTGA_LTGcore_CT_RTGcore_GG] (site ATGTCCCCTGA) (LTG core: CT, RTG core: GG) | 0.175 |
| ATGTCCCCTTGGGTTCTAACCTGTTGCTCGA [ATGTCCCCTGA_LTGcore_CT_RTGcore_TC] (site ATGTCCCCTGA) (LTG core: CT, RTG core: TC) | 0.0646 |
| ATGTCCCCTTGGGTTCTAACCTGTTGCTCTT [ATGTCCCCTGA_LTGcore_CT_RTGcore_AA] (site ATGTCCCCTGA) (LTG core: CT, RTG core: AA) | 0.0454 |
| ATGTCCCGATGGGTTCTAACCTGTTGCTCTC [ATGTCCCCTGA_LTGcore_GA_RTGcore_GA] (site ATGTCCCCTGA) (LTG core: GA, RTG core: GA) | 0.0444 |
| CATATTACGTGGGTTCTAACCTGTTGCCTAG [CATATTACTAG_LTGcore_CG_RTGcore_CT] (site CATATTACTAG) (LTG core: CG, RTG core: CT) | 0.0547 |
| CATATTACTTGGGTTCTAACCTGTTGCCTAA [CATATTACTAG_LTGcore_CT_RTGcore_TT] (site CATATTACTAG) (LTG core: CT, RTG core: TT) | 0.105 |
| CATATTACTTGGGTTCTAACCTGTTGCCTCA [CATATTACTAG_LTGcore_CT_RTGcore_TG] (site CATATTACTAG) (LTG core: CT, RTG core: TG) | 0.0517 |
| CATATTACTTGGGTTCTAACCTGTTGCCTCT [CATATTACTAG_LTGcore_CT_RTGcore_AG] (site CATATTACTAG) (LTG core: CT, RTG core: AG) | 0.0539 |
| CATATTACTTGGGTTCTAACCTGTTGCCTTC [CATATTACTAG_LTGcore_CT_RTGcore_GA] (site CATATTACTAG) (LTG core: CT, RTG core: GA) | 0.084 |
| CATATTACTTGGGTTCTAACCTGTTGCCTTT [CATATTACTAG_LTGcore_CT_RTGcore_AA] (site CATATTACTAG) (LTG core: CT, RTG core: AA) | 0.0756 |
| CATATTAGGTGGGTTCTAACCTGTTGCCTCC [CATATTACTAG_LTGcore_GG_RTGcore_GG] (site CATATTACTAG) (LTG core: GG, RTG core: GG) | 0.117 |
| CATATTATATGGGTTCTAACCTGTTGCCTAG [CATATTACTAG_LTGcore_TA_RTGcore_CT] (site CATATTACTAG) (LTG core: TA, RTG core: CT) | 0.0615 |
| CATATTATCTGGGTTCTAACCTGTTGCCTAG [CATATTACTAG_LTGcore_TC_RTGcore_CT] (site CATATTACTAG) (LTG core: TC, RTG core: CT) | 0.127 |
| CATATTATTTGGGTTCTAACCTGTTGCCTAA [CATATTACTAG_LTGcore_TT_RTGcore_TT] (site CATATTACTAG) (LTG core: TT, RTG core: TT) | 0.0172 |
| CATATTATTTGGGTTCTAACCTGTTGCCTAG [CATATTACTAG_LTGcore_TT_RTGcore_CT] (site CATATTACTAG) (LTG core: TT, RTG core: CT) | 0 |
| CGAGCCCAGTGGGTTCTAACCTGTTGCTGCT [CGAGCCCCTCA_LTGcore_AG_RTGcore_AG] (site CGAGCCCCTCA) (LTG core: AG, RTG core: AG) | 0.189 |
| CGAGCCCATTGGGTTCTAACCTGTTGCTGAG [CGAGCCCCTCA_LTGcore_AT_RTGcore_CT] (site CGAGCCCCTCA) (LTG core: AT, RTG core: CT) | 0.104 |
| CGAGCCCCCTGGGTTCTAACCTGTTGCTGGG [CGAGCCCCTCA_LTGcore_CC_RTGcore_CC] (site CGAGCCCCTCA) (LTG core: CC, RTG core: CC) | 0.0674 |
| CGAGCCCCTTGGGTTCTAACCTGTTGCTGTA [CGAGCCCCTCA_LTGcore_CT_RTGcore_TA] (site CGAGCCCCTCA) (LTG core: CT, RTG core: TA) | 0.68 |
